For experiment [1], the system named is DU145 tumor. As to the kind of experiment: SC DU145 prostate tumor xenograft. The note with it: LT1009 50 mg/kg ip q2d; Avastin 20 mg/kg q4d; Paclitaxel 7.5 mg/kg q1d×5. In kind it is in vivo, nude NCr (nu/nu) mice. On the procedure: Nude mice were implanted sc near the right flank with one fragment per mouse of DU145 tumor from an in vivo passage. All treatments were initiated the day when 60 mice in each experiment established tumors ranging in size from approximately 100 to 200 mm^3. […] Paclitaxel and Avastin were administered iv and ip at a dosage of 7.5 mg/kg/dose and 20 mg/kg/dose, q1d×5 and q4d, respectively, injected in a volume of 0.1 mL/10 g body weight.
During the course of the study tumor growth was monitored by measuring the sc tumors on three axes and calculating the volume. At the end of the study final tumor weights and volumes were determined and then the mice were sacrificed, the tumors harvested. Microvascular densities (MVD) of the tumors were then determined by CD-31 staining.

Experiment [2] has as its system RPMI 8226 tumor. As to the kind of experiment: RPMI 8226 human myeloma tumor xenograft. In kind it is in vivo, CB17 SCID mice. The method, then:
Nude mice (CB17 SCID, aged 4-5 weeks, weight 18-22 gm, female mice obtained from Harlan) were injected sc with RPMI 8226 cells harvested from tissue culture (˜1×10^7 cells/mouse). When tumors grew to approximately 100 mm^3 in size, animals were pair-matched by tumor size into treatment and control groups (10 mice per group). Initial dosing began Day 1 following pair-matching. Animals in all groups were dosed by weight (0.01 ml per gram; 10 ml/kg). […] Bortezomib was administered by intravenous injection via tail vein once every three days for six treatments (Q3D×6).
Individual and group mean tumor volumes±SEM are recorded twice weekly until study completion beginning Day 1. Final mean tumor volume±SEM for each group are reported at study completion; animals experiencing partial or complete tumor regressions or animals experiencing technical or drug-related deaths are censored from these calculations.

The subject of experiment [3] is retinal neovascularization. The experiment is described as follows: Murine model of retinopathy of prematurity: retinal neovascularization. In kind it is in vivo, C57BL/6 mice. Particulars: 5.0 μg/eye intravitreal. The method, then:
C57BL/6 mice (n=7) were placed in 75% oxygen at day 7 of life and at day 12 of life were returned to room air and given an intraocular injection of 5 μg of sonepcizumab in one eye and vehicle in the contralateral eye. At day 17, the mice received an intraocular injection of anti-PECAM antibody labeled with FITC and after 8 hours, mice were euthanized and eyes were removed and fixed in PBS-buffered formalin at room temperature for 5 hours. Retinas were dissected and washed with phosphate-buffered saline containing 0.25% Triton X-100 and whole mounted. Slides were viewed with a Nikon Fluorescence Microscope and the area of retinal NV per retina was measured by image analysis.

Experiment [4] has as its system CNV lesions. As to the kind of experiment: Sonepcizumab dose response in laser CNV model (fluorescein-labeled dextran). In kind it is in vivo, mice. On the procedure:
Mice (n=10) received a single, bilateral intravitreal injection of escalating doses of sonepcizumab (0.085, 0.85, 1.7 or 5 μg/eye) or a high dose nonspecific (NS) antibody (3.0 μg/eye) one day prior to laser-induced rupture of Bruch's membrane. Fourteen days after laser rupture, mice were anesthetized and perfused with fluorescein-labeled dextran and choroidal flatmounts were prepared for analysis of CNV lesion size.
In this study, the effect of sonepcizumab dose amount and dose interval on CNV inhibition were examined using another validated method of quantifying CNV area in which animals were perfused with fluorescein-labeled dextran just before sacrifice. Sonepcizumab induced a dose-dependent reduction in the area of CNV resulting in a maximal inhibition of approximately 50%, at a dose of 5 μg/eye. This reduction was significant (p<0.0001 compared to non-specific antibody control using an unpaired t-test). In the dosing frequency study, similar efficacy was observed between groups treated with Sonepcizumab at a single timepoint (day 0) or at multiple timepoints (days 0 and 7) over the 14-day study.

The subject of experiment [5] is retinal macrophages. The experiment is described as follows: Oxygen induced retinopathy (ROP) model: retinal macrophage infiltration. Particulars: 5 μg intraocular at day 12, read at day 17. In kind it is in vivo, C57BL/6 mice. The method, then: At day 17 of life, the mice received an intraocular injection of FITC-labeled antibody to F4/80 (a pan-macrophage marker) and after 8 hours, mice were euthanized. The globes were removed and fixed in PBS-buffered formalin at room temperature for 5 hours. Retinas were dissected and washed with phosphate-buffered saline containing 0.25% Triton X-100 and whole mounted. Slides were viewed with a Nikon Fluorescence Microscope and retinal macrophages were quantified.

In experiment [6] the test system is cardiac scar formation / immune-cell wound infiltration. The experiment is described as follows: Permanent myocardial infarction murine model (fibrosis, immune cell infiltration). In kind it is in vivo, mice. On the procedure: SPHINGOMAB reduced immune-cell wound infiltration in vivo. Mice were subjected to MI, treated with saline or 25 mg/kg SPHINGOMAB 48 hr. after surgery and then sacrificed on day 4. SPHINGOMAB reduced macrophage (A) and mast cell (B) infiltration into the wound. Data are represented as fold decrease of saline-treated values.
Studies evaluated the efficacy of SPHINGOMAB to reduce cardiac scar formation after permanent myocardial infarction (MI) via ligation of the left descending coronary artery in mice. Systemic administration of 25 mg/kg SPHINGOMAB or saline was initiated 48 hrs after surgery. Antibody administration at 48 hr. was chosen to allow normal, reparative scar formation to occur during the early remodeling phase and permit beneficial, S1P-stimulated angiogenesis immediately after the MI. Two weeks after the infarct, mice were sacrificed and fibrosis was accessed by Masson's trichrome staining of the cardiac tissue. […] As a control for any non-specific wound-healing responses, sham animals underwent thoracotomy without coronary artery ligation (FIG. 7E).
Based upon the similarities of immune and inflammatory responses in CNV and CVD, the efficacy of SPHINGOMAB to mitigate immune cell infiltration into a wound was evaluated in a murine infarct model as an indication of SPHINGOMAB's potential effects in mitigating these damages during AMD [Vine, et al. (2005), Ophthalmology., vol 112: 2076-80; and Seddon and Chen (2004), Int Ophthalmol Clin., vol 44: 17-39]. Four days post-MI, macrophage and mast cell infiltration was evaluated using MAC-1 and MCG35 antibodies, respectively, within the area at risk.

The mark [7] stands for this setting: LT1009 50 mg/kg IP Q3D to end, Bortezomib iv Q3D×6.

On to “LT1009: humanized anti-S1P IgG1/kappa mAb with Cys to Ala in HCDR2, light chain with 5 backmutations; SEQ ID NO: 31/32”, for which the “% Reduction compared to Vehicle-Treated Mice” value came to 28% in experiment [1], 11% in experiment [2] (LT1009 25 mg/kg IP Q3D to end) and 5% in experiment [2] (setting [7]). Further, the “Final Tumor Weights” value is on record as 2242 mg in experiment [1], 1860 mg in experiment [2] (LT1009 25 mg/kg IP Q3D to end) and 1978 mg in experiment [2] (setting [7]). In addition, in experiment [3], the “reduction in retinal neovascularization compared to saline control” value is ~4 fold. The “maximal inhibition of CNV area” value in experiment [4] (5 μg/eye single intravitreal, 14 days) is listed as “approximately 50%”. Further, the “reduction in CNV lesion size greater than that observed with the VEGF-Trap” value in experiment [4] (comparison of two independent studies, VEGF-Trap 4.92 μg/eye (Saishin et al.)) is recorded as 20 percentage points. Also, the “# of macrophages per retina” value in experiment [5] came out at 1136 ± 33. The “% reduction in macrophage density” value in experiment [5] amounted to 55%; in experiment [5] (listed as S1P antibody), 55.4 ± 1.3%.

B1: LT1002: murine anti-S1P monoclonal antibody, IgG1 kappa, from hybridoma clone 306D326.26 (antibody, listed as Mus sp., V domains shown)
VH: QAHLQQSDAELVKPGASVKISCKVSGFIFIDHTIHWMKQRPEQGLEWIGCISPRHDITKYNEMFRGKATLTADKSSTTAYIQVNSLTFEDSAVYFCARGGFYGSTIWFDFWGQGTTLTVS
VL: ETTVTQSPASLSMAIGEKVTIRCITTTDIDDDMNWFQQKPGEPPNLLISEGNILRPGVPSRFSSSGYGTDFLFTIENMLSEDVADYYCLQSDNLPFTFGSGTKLEIK
Regarding B1, the perivascular fibrosis entry in experiment [6] (25 mg/kg from 48 hrs after surgery, two weeks after infarct) is recorded as “almost complete abrogation”. In experiment [6] (four days post-MI), the “density of inflammatory macrophages” value is given as “dramatically attenuated” and the “density of mast cells” value is “dramatically attenuated”.
